Patent publication EP0110746A1, “Derivatives of 3-amino-1-phenoxy-2-propanol, their therapeutical use and process for their preparation” (LABORATOIRE L. LAFON Société anonyme dite:, priority 1982, dated 1984)

How the values were obtained:
homme = test: Clinical trials in man; type: in vivo; conditions: daily dose 40 à 50 mg in 2 à 3 intakes, 2 à 6 semaines
rat mâle = test: Global behaviour and reactivities, rat; type: in vivo
Protocol: (§1) On a résumé ci-après une partie des essais qui ont été entrepris avec le CRL 41 058 (produit de l'exemple 1). Dans ces essais et sauf indications contraires, le CRL 41 058, en suspension dans une solution aqueuse de gomme arabique pour des concentrations supérieures ou égales à 3 g/1, et en solution dans de l'eau distillée pour des concentrations inférieures à 3g/l, a été administré par voie intrapéritonéale sous un volume de 20 ml/kg chez la souris mâle et de 5 ml/kg chez le rat mâle.

[1] = test system: rats normotendus anesthésiés au pentobarbital; test: Anaesthetised rat: duration of the β-blocking action; type: in vivo
Protocol: Des rats normotendus sont anesthésiés au pentobarbital (75 mg/kg I.P.) et atropinés (1 mg/kg I.P.) On mesure leur pression artérielle carotidienne, leur fréquence cardiaque par intégration de la pression artérielle. Une veine jugulaire est cathétérisée pour les injections. Si besoin est, l'anesthésie est entretenue par injection sous-cutanée de pentobarbital.
5 rats reçoivent 1 mg/kg de CRL 41 058 par voie I.V. 0n observe que : • - la pression artérielle, diastolique n'est pas modifiée, elle reste voisine de 91 mm Hg; et • - la fréquence cardiaque passe, en 5 min, de 345 à 290 bat/min (soit -16%), la bradycardie maximale est obtenue au temps 20 min : 280 bat/min (soit -19%). Après 90 min, la fréquence cardiaque est à 307 bat/min (soit -11%).

[2] = test system: oreillettes droites isolées de cobaye; test: Isolated guinea pig right atria: pA2 against chronotropic effect of isoprenaline, own inotropic and chronotropic action
Source text: Sur ces oreillettes, on évalue aussi l'action inotrope et chronotrope propre du CRL 41 058; aucune moyenne n'a pu être faite, les concentrations et l'ordre d'administration des concentrations étant variables. […] Par contre, si,par exemple, la concentration de 10^-6 M est administrée après des concentrations inférieures qui ont été stimulantes, cette concentration de 10^-6 M est ino et chrono (ce phénomène pourrait laisser supposer une libération de catécholamines).

souris mâle [3] = test: in vivo; conditions: mouse, ip
Protocol: as §1
(§2) Chez la souris màle par voie I.P., la DL-0 (dose maximale non mortelle) est supérieure à 64 mg/kg, et la DL-30 (dose à laquelle 30% des animaux meurent) est de l'ordre de 128 mg/kg. Le CRL 41 058 est moins toxique que le chlorhydrate de 1-(3,5-diméthoxy- phénoxy)-3-tertiobutylamino-2-propanol qui a une DL-50 par voie I.P. chez la souris mâle de l'ordre de 73 mg/kg.

[4] = test system: rats génétiquement hypertendus; test: Awake genetically hypertensive rat: arterial pressure and heart rate; type: in vivo; conditions: 20 mg/kg V.B.
Protocol: 6 rats génétiquement hypertendus, à cathéter artériel fémoral implanté, reçoivent le CRL 41 058 à la dose de 20 mg/kg V.B.

Solubility in water = type: physicochemical; conditions: read-out: soluble dans l'eau
Protocol: La base libre ainsi obtenue est traitée au reflux dans de l'éthanol anhydre par de l'éthanol chlorhydrique. Il se forme un précipité que l'on isole pour recueillir 36,3 g (rendement = 69,75%) de CRL 41 058 qui se présente sous la forme d'une poudre légèrement beige soluble à 12,5 g/1 dans l'eau. Finst (Köfler) ^= 216°C.

[5] = test system: tachycardie induite par isoprénaline; test: Anaesthetised rat: determination of the effective β-blocking dose; type: in vivo; conditions: iv, I.V., 0,03 à 0,3 µg/kg I.V. isoprénaline, read-out: dose qui bloque la tachycardie induite par isoprénaline
Protocol: Des rats normotendus sont anesthésiés au pentobarbital (75 mg/kg I.P.) et atropinés (1 mg/kg I.P.) On mesure leur pression artérielle carotidienne, leur fréquence cardiaque par intégration de la pression artérielle. Une veine jugulaire […] pour les injections. Si besoin est, l'anesthésie est entretenue par injection sous-cutanée de pentobarbital. 3 rats reçoivent le CRL 41 058 par voie intraveineuse, aux doses successives de 0,3 mg/kg, 1 mg/kg,3 mg/kg, 10 mg/kg et, éventuellement, 30 mg/kg. On détermine la dose qui bloque […] induite par 0,03 à 0,3μg/kg […] (dose nécessaire pour obtenir une augmentation de fréquence cardiaque de 30 à 50 bat/min). On trouve que la dose en question est de 1 mg/kg I.V.

[6] = test system: chiens anesthésiés au nembutal; test: Cardiovascular properties, anaesthetised dog, intraduodenal route; type: in vivo, chien
Protocol: Trois chiens (poids moyen : 13,6 kg) anesthésiés au nembutal reçoivent le CRL 41 058 par voie intraduodénale aux doses successives de 0,5 mg/kg, 1 mg/kg, 2,5 mg/kg, 5 mg/kg et 10 mg/kg. On mesure la pression artérielle (il est rappelé que 1 mm Hg correspond à environ 1,333 x 102 Pa), la fréquence cardiaque, le débit artériel fémoral, le débit artériel vertébral, la température rectale, et on note la coloration de la peau et la coloration de la bile recueillie par cathétérisation du cholédoque après ligature du cystique.

souris mâle [7] = test: Global behaviour and reactivities, mouse; type: in vivo
Protocol: as §1

in vivo = test: in vivo; parameters: species or system souris; conditions: mouse, ip
Protocol: as §1, §2

COc1cc(OC)c(Cl)c(OCC(O)CNC(C)(C)C)c1 (stereo not shown) [CRL 41 058, chlorhydratede 1-(2-chloro-3,5-diméthoxyphénoxy)-3-tertiobutylamino-2-propanol]
action β-bloquante chez l'homme (homme): confirmé chez l'homme l'intérêt de l'action β-bloquante
symptômes (rat mâle; I.P., 0,25 mg/kg, 1 mg/kg et 4 mg/kg): ne provoquent pas de symptômes nets
symptômes (rat mâle; I.P., 16 mg/kg): sédation fugace (30 min) et déprime la respiration (chez 2 animaux sur 3) pendant 30 min
tachycardie à l'isoprénaline ([1]; 0,03 µg/kg I.V. isoprénaline after 1 mg/kg I.V., 5 min): totalement inhibée
tachycardie à l'isoprénaline, part de sa valeur reprise ([1]; 0,03 µg/kg I.V. isoprénaline after 1 mg/kg I.V., 20 min): 50%
tachycardie à l'isoprénaline, part de sa valeur restaurée ([1]; 0,03 µg/kg I.V. isoprénaline after 1 mg/kg I.V., 60 min): 92%
variation de pression artérielle à l'isoprénaline par rapport à la variation témoin ([1]; 0,03 µg/kg I.V. isoprénaline after 1 mg/kg I.V., at 5 min and during 2 h): -69%
variation de pression artérielle à l'isoprénaline ([1]; 0,03 µg/kg I.V. isoprénaline after 1 mg/kg I.V., at 5 min and during 2 h, control -26 mm Hg): +8 mm Hg
fréquence cardiaque, variation ([1]; 1 mg/kg I.V., 5 min): -16%
fréquence cardiaque ([1]; 1 mg/kg I.V., 5 min, baseline 345): 290 bat/min
fréquence cardiaque (bradycardie maximale) ([1]; 1 mg/kg I.V., 20 min): 280 bat/min
fréquence cardiaque, variation (bradycardie maximale) ([1]; 1 mg/kg I.V., 20 min): -19%
fréquence cardiaque ([1]; 1 mg/kg I.V., 90 min): 307 bat/min
fréquence cardiaque, variation ([1]; 1 mg/kg I.V., 90 min): -11%
pression artérielle diastolique ([1]; 1 mg/kg I.V., not modified): ~91 mm Hg
Kb ([2]; Cavia porcellus, 0.25 h, 15 min de contact, mean of 5 atria, read-out: pA2 vis-à-vis de l'effet chronotrope de l'isoprénaline (converted)): 6.17 nM
action inotrope et chronotrope propre ([2]; maximum at first concentration used, 3 x 10^-8 à 10^-6 M): effet ino + et chrono+
DL-0 (dose maximale non mortelle) (souris mâle [3]): > 64 mg/kg
DL-30 (dose à laquelle 30% des animaux meurent) (souris mâle [3]): ~128 mg/kg
fréquence cardiaque ([4]; 5 min, baseline 382): 322 bat/min
fréquence cardiaque (bradycardie maximale) ([4]; 2 h): 305 bat/min
pression artérielle ([4]; 6 h, baseline 191): 167 mm Hg
fréquence cardiaque ([4]; 7 h): 322 bat/min
fréquence cardiaque ([4]; 24 h): 330 bat/min
pression artérielle ([4]; 24 h): a repris sa valeur témoin
solubility (Solubility in water): 12.5 mg/mL
minimal effective dose [5]: 1 mg/kg
effet tachycardisant de l'isoprénaline ([6]; 100 µg/kg isoprénaline, two dogs, after cumulative dose 19 mg/kg): inférieur à l'effet tachycardisant de 0,3µg/kg d'isoprénaline témoin
minimal effective dose ([6]; Canis lupus familiaris, intraduodenal, voie intraduodénale, successive doses 0,5 to 10 mg/kg, read-out: dose bradycardisante): ≥ 0.5 mg/kg
pression artérielle systolique ([6]; after 1 µg/kg noradrénaline, control 280 mm Hg): 221 mm Hg
pression artérielle diastolique ([6]; after 3 µg/kg isoprénaline, cumulative dose 19 mg/kg, control 48 mm Hg): 119 mm Hg
fréquence cardiaque ([6]; after 3 µg/kg isoprénaline, cumulative dose 19 mg/kg, control 245 bat/min): 110 bat/min
coloration de la peau et celle de la bile ([6]; voie intraduodénale): ne sont pas modifiées
débit artériel vertébral ([6]; voie intraduodénale): n'est pas vasodilatateur vertébral
températures rectale et cutanée ([6]; voie intraduodénale): varient peu
action sur la pression artérielle ([6]; voie intraduodénale, from 0,5 mg/kg): sans aucune action nette
augmentation du débit fémoral ([6]; voie intraduodénale, flow decreases in the two other dogs): présente seulement chez un chien sur trois
symptômes (souris mâle [7]; I.P., 0,5 mg/kg, 2 mg/kg et 8 mg/kg): ne provoquent pas de symptômes nets
symptômes (souris mâle [7]; I.P., 32 mg/kg): sédation inconstante (chez 2 animaux sur 3) et fugace (30 min), une dyspnée (chez 2 animaux sur 3) pendant 15 à 30 min

COc1cc(OC)cc(OCC(O)CNC(C)(C)C)c1 (stereo not shown) [chlorhydratede 1-(3,5-diméthoxy-phénoxy)-3-tertiobutylamino-2-propanol, reference compound]
LD50 (in vivo): ~73 mg/kg
